Test [1] deals with T1, P2X purinoceptor 4 (Homo sapiens, UniProt Q99571).
T1 sequence (Q99571 whole entry): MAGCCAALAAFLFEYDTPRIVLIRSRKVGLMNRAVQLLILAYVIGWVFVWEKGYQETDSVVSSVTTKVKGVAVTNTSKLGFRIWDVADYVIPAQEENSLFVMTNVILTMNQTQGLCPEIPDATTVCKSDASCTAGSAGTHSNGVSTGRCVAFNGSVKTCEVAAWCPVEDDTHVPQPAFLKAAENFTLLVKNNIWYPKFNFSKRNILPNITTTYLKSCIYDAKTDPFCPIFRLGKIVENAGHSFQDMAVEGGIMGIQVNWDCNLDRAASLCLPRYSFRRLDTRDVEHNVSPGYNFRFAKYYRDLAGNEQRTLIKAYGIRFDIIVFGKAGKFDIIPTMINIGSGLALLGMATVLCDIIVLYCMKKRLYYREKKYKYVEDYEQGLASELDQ
The test can be described thus: The compound was evaluated for antagonist activity against recombinant human P2X purinoceptor 4 (P2X4). It counts as functional.

For test [2], the target named is T2, P2X purinoceptor 3 (Homo sapiens, UniProt P56373).
T2 sequence (P56373 whole entry): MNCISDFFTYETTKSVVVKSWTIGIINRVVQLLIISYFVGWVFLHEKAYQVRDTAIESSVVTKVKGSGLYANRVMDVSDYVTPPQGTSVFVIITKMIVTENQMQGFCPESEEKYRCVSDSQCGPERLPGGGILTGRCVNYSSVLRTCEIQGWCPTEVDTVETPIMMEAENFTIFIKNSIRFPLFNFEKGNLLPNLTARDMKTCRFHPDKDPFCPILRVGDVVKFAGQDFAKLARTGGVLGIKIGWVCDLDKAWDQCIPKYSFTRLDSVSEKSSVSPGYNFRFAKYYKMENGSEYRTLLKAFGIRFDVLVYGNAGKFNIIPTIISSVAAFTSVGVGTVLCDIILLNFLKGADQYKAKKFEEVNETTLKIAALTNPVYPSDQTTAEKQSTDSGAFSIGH
Nature of the test: The compound was evaluated for antagonist activity against recombinant human P2X purinoceptor 3 (P2X3 ). Format: functional.

In test [3] the target is T3, P2X purinoceptor 1 (Homo sapiens, UniProt P51575).
T3 sequence (P51575 whole entry): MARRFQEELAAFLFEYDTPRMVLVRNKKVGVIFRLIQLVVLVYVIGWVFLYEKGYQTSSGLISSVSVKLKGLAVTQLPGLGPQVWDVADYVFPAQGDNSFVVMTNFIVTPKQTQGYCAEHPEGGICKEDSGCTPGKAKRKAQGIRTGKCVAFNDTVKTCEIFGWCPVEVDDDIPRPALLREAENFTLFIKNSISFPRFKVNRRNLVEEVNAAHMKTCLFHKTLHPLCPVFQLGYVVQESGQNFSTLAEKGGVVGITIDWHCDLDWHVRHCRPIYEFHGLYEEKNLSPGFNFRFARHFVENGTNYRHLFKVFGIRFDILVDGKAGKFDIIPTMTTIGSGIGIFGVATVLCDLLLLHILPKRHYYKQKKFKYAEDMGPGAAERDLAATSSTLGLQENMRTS
The test can be described thus: The compound was evaluated for antagonist activity against recombinant human P2X purinoceptor 1 (P2X1 ). It counts as functional.

Test [4] addresses T4, P2X purinoceptor 2 (Rattus norvegicus, UniProt P49653).
T4 sequence (P49653 whole entry): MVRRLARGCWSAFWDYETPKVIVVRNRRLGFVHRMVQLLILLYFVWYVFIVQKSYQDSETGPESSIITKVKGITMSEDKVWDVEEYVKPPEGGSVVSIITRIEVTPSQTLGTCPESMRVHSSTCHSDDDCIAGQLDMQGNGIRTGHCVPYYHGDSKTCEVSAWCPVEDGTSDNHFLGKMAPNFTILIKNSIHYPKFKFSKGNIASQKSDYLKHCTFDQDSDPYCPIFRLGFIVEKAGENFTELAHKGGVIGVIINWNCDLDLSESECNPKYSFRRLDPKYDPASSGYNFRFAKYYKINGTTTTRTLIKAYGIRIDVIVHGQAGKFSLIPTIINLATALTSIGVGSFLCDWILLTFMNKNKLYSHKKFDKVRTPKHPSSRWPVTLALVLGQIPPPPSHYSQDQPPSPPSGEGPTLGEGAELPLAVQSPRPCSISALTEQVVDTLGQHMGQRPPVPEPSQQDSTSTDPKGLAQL
The test can be described thus: The compound was evaluated for antagonist activity against recombinant rat P2X purinoceptor 2 (P2X2) at 10 uM. It counts as functional.

The target of test [5] is T5, P2X purinoceptor 1 (Rattus norvegicus, UniProt P47824).
T5 sequence (P47824 whole entry): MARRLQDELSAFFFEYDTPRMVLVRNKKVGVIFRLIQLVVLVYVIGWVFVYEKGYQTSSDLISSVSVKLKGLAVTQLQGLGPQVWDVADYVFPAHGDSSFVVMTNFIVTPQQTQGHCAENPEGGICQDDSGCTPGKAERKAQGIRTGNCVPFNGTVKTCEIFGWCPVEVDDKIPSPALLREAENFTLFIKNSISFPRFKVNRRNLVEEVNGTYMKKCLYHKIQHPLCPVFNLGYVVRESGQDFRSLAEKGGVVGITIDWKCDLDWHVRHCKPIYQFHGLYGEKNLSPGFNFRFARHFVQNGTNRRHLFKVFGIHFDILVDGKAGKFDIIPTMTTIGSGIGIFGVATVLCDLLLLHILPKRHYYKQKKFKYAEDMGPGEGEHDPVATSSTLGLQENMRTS
Nature of the test: The compound was evaluated for antagonist activity against recombinant rat P2X purinoceptor 1 (P2X1) at 1 uM, expressed in Xenopus oocytes. It counts as functional, cell-based, Oocyte.

Test [6] deals with P2X purinoceptor 3 (Rattus norvegicus, UniProt P49654). The test can be described thus: The compound was evaluated for antagonist activity against recombinant rat P2X purinoceptor 3 (P2X3) at 3 uM, expressed in Xenopus oocytes. Format: functional, cell-based, Oocyte.
Test [7] has as its target P2Y purinoceptor 1 (Cavia porcellus). The test can be described thus: The compound was evaluated for antagonistic activity at P2Y purinoceptor 1 (P2Y1) from guinea pig taenia coli.
The target in test [8] is T5, P2X purinoceptor 1. The test can be described thus: The compound was evaluated for antagonist activity against P2X purinoceptor 1 (P2X1) like receptor from rat vas deferens. Format: functional.
Another test deals with P2Y purinoceptor 12 (Rattus norvegicus, UniProt Q9EPX4). Nature of the test: Antagonist activity against phospholipase C coupled rat P2Y purinoceptor 12 (P2Y12). Format: functional.
For a further test, the target named is P2Y purinoceptor 4 (Homo sapiens, UniProt P51582). The test can be described thus: The compound was evaluated for antagonist activity against phospholipase C coupled recombinant human P2Y purinoceptor 4 (P2Y4). It counts as functional.
For another test, the target named is P2X purinoceptor 6 (Rattus norvegicus, UniProt P51579). The test can be described thus: Antagonist activity against recombinant rat P2X purinoceptor 6 (P2X6 ). Format: functional.
Test [9] has as its target T4, P2X purinoceptor 2. Nature of the test: The compound was evaluated for antagonist activity against recombinant rat receptor P2X purinoceptor 2 (P2X2) at 30 uM, expressed in Xenopus oocytes. It counts as functional, cell-based, Oocyte.
The target of another test is P2Y purinoceptor 2 (Homo sapiens, UniProt P41231). Nature of the test: Evaluated for agonist activity against phospholipase C coupled recombinant human P2Y purinoceptor 2 (P2Y2). It counts as functional.
Another test addresses P2Y purinoceptor 6 (Homo sapiens, UniProt Q15077). The test can be described thus: The compound was evaluated for antagonist activity against phospholipase C coupled recombinant human P2Y purinoceptor 6 (P2Y6). It counts as functional. The conditions noted are these: concentration not given here.
The target of a further test is P2Y purinoceptor 1 (Meleagris gallopavo, UniProt P49652). The test can be described thus: Evaluated for antagonist activity against phospholipase C coupled P2Y purinoceptor 1 (P2Y1) of turkey erythrocytes. It counts as functional.
The target of test [10] is T6, P2X purinoceptor 4 (Rattus norvegicus, UniProt P51577).
T6 sequence (P51577 whole entry): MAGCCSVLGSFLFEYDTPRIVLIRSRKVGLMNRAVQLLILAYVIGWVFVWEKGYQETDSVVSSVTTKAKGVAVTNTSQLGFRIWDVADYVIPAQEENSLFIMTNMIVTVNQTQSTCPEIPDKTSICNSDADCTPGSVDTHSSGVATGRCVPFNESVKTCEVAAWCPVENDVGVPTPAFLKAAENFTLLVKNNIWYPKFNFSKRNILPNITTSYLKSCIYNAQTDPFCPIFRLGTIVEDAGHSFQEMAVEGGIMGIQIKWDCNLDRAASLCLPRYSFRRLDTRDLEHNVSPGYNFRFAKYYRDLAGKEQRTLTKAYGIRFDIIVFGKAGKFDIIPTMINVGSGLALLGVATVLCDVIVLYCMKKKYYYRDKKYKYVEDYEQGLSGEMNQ
The test can be described thus: Antagonist activity against recombinant rat P2X purinoceptor 4 (P2X4) at 3 uM, expressed in Xenopus oocytes. It counts as functional, cell-based, Oocyte.

In a further test the target is T7, P2Y purinoceptor 11 (Homo sapiens, UniProt Q96G91).
T7 sequence (Q96G91 whole entry): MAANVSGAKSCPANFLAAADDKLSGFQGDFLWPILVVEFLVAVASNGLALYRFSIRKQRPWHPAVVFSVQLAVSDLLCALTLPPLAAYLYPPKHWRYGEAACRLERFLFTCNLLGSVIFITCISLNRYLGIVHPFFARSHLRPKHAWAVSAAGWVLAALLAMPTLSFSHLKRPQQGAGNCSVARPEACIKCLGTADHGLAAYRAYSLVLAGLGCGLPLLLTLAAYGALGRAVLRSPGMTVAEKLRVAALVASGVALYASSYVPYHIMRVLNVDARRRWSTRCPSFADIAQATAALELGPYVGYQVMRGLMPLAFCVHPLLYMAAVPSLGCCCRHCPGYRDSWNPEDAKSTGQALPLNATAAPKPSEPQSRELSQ
Nature of the test: The compound was evaluated for antagonist activity against phospholipase C coupled human P2Y purinoceptor 11 (P2Y11). Format: functional.

The target in a further test is T8, P2X purinoceptor 5 (Rattus norvegicus, UniProt P51578).
T8 sequence (P51578 whole entry): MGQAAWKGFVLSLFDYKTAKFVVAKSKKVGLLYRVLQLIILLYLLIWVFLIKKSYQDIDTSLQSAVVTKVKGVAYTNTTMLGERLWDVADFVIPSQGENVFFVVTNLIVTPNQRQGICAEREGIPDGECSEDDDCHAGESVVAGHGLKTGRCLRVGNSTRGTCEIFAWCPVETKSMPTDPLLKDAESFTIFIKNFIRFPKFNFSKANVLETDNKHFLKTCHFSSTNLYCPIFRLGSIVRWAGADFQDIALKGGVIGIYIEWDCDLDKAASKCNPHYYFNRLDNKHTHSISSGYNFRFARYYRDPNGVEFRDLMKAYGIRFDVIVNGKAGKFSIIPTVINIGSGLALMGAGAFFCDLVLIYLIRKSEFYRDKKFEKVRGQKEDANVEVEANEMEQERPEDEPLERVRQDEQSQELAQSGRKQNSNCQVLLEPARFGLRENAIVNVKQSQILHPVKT
Nature of the test: Antagonist activity against recombinant rat P2X purinoceptor 5 (P2X5). Format: functional.

Test [11] has as its target P2Y purinoceptor 1 (Meleagris gallopavo). Nature of the test: The compound was evaluated for antagonist activity against phospholipase C coupled P2Y purinoceptor 1 (P2Y1) of turkey erythrocytes.

Each structure is given as a SMILES string.

Sequence of P2Y purinoceptor 12 (Q9EPX4 whole entry): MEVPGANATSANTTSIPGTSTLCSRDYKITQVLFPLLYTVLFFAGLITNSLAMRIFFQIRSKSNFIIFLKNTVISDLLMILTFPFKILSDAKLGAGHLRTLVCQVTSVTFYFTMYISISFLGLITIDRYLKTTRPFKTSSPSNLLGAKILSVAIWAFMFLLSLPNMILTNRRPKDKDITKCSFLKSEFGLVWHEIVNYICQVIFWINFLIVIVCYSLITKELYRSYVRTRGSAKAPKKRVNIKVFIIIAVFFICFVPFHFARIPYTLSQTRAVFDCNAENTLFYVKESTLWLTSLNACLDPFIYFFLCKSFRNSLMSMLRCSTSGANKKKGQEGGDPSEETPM
Sequence of P2Y purinoceptor 6 (Q15077 whole entry): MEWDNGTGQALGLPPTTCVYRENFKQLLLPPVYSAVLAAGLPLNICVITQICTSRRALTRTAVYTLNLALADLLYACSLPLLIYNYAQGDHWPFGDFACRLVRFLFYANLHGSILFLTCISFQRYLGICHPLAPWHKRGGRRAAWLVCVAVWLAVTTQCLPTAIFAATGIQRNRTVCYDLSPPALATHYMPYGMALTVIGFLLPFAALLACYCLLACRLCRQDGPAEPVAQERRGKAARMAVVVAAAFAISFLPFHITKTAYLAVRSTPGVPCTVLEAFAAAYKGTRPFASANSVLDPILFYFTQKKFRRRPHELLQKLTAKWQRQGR
Sequence of P2Y purinoceptor 2 (P41231 whole entry): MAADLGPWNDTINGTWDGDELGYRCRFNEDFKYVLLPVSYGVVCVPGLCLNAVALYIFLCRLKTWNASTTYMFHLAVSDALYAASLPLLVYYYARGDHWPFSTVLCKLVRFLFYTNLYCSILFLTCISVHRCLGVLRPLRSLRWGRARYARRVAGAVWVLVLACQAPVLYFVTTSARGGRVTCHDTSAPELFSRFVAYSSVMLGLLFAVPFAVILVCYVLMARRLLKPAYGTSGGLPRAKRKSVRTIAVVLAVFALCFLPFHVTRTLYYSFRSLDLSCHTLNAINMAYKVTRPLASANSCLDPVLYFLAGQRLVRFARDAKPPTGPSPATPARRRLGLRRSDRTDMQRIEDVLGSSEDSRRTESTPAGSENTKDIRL
Sequence of P2Y purinoceptor 4 (P51582 whole entry): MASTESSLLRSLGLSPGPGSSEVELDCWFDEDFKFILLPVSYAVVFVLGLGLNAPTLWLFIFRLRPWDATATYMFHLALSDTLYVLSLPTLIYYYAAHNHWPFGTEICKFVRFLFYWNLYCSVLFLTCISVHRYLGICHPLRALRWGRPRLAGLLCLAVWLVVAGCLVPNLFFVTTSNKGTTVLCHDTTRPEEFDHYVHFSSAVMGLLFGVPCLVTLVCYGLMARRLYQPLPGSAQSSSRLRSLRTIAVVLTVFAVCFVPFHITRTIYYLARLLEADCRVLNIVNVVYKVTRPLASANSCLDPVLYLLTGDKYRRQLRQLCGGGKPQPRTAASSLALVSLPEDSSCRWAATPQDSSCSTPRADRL
Sequence of P2X purinoceptor 6 (P51579 whole entry): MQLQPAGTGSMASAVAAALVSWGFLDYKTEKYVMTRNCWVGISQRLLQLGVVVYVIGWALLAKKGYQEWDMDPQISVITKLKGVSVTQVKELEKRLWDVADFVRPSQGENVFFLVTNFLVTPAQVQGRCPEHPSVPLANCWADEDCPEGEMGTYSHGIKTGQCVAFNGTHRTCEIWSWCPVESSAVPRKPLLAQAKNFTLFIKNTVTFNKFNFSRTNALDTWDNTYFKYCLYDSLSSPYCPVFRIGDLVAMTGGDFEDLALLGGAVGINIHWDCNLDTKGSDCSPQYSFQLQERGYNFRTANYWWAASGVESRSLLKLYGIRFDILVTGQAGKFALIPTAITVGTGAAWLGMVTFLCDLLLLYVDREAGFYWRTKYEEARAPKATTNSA
Sequence of P2X purinoceptor 3 (Rattus norvegicus, UniProt P49654) (P49654 whole entry): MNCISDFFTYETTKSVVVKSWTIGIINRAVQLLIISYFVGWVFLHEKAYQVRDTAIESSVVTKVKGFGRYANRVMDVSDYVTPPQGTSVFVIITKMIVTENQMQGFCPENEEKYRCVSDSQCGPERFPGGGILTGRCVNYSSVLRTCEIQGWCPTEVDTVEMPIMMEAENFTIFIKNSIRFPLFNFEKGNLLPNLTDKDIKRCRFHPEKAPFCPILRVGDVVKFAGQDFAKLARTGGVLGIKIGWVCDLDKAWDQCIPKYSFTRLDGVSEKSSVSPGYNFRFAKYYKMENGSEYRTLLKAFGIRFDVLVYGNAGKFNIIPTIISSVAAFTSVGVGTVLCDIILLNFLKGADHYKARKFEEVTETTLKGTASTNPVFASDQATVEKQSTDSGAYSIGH
Sequence of P2Y purinoceptor 1 (P49652 whole entry): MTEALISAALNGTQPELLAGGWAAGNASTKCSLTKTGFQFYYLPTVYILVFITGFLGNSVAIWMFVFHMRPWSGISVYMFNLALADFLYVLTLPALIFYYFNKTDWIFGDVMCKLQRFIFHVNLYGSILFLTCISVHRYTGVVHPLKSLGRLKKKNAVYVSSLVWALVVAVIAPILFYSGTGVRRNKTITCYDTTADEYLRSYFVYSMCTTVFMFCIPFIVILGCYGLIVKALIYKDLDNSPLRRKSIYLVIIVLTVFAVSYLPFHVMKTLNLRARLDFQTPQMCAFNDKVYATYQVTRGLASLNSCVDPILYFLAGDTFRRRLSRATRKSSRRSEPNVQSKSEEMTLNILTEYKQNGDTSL

In the case of `O=C(Nc1cccc(C(=O)Nc2ccc(S(=O)(=O)O)c3cc(S(=O)(=O)O)cc(S(=O)(=O)O)c23)c1)Nc1cccc(C(=O)Nc2ccc(S(=O)(=O)O)c3cc(S(=O)(=O)O)cc(S(=O)(=O)O)c23)c1`, the IC50 at P2X purinoceptor 4 [1] is over 100 µM; on P2X purinoceptor 3 [2] it was 28.5 µM; at P2X purinoceptor 1 [3], 0.21 µM; at P2X purinoceptor 2 [4], over 50 µM.

Take `Cc1nc(/N=N/c2cc(CP(=O)(O)O)cc(CP(=O)(O)O)c2)c(COP(=O)(O)O)c(C=O)c1O`: the figures for the concentration giving a half-maximal response (EC50) on P2X purinoceptor 1 [5] and on P2X purinoceptor 3 [6] were 0.005 µM and 0.022 µM, respectively.

On to `Nc1c(S(=O)(=O)O)cc(Nc2ccc(Nc3nc(Cl)nc(Cl)n3)cc2S(=O)(=O)O)c2c1C(=O)c1ccccc1C2=O`, for which the IC50 in test [7] is under 1 µM; on P2X purinoceptor 1 [8] it was 1.6 µM.

Regarding `Cc1ccc(C(=O)Nc2ccc(S(=O)(=O)O)c3cc(S(=O)(=O)O)cc(S(=O)(=O)O)c23)cc1NC(=O)c1cccc(NC(=O)Nc2cccc(C(=O)Nc3cc(C(=O)Nc4ccc(S(=O)(=O)O)c5cc(S(=O)(=O)O)cc(S(=O)(=O)O)c45)ccc3C)c2)c1` [SURAMIN], the EC50 at P2Y purinoceptor 12 is 4 µM; on P2Y purinoceptor 4, over 100 µM; on P2X purinoceptor 6, over 100 µM; at P2X purinoceptor 2 [9], 10.4 µM; on P2X purinoceptor 1 [5] it was 1 µM; on P2Y purinoceptor 2 it was 48 µM. Besides, the EC50 at P2Y purinoceptor 1 is over 10 µM; on P2X purinoceptor 4 [10], over 100 µM; at P2Y purinoceptor 11, 16 µM; at P2X purinoceptor 5, 4 µM. The inhibition on P2Y purinoceptor 6 was 27%.

In test [11], `CNc1nc(Cl)nc2c1ncn2CCC(COP(=O)(O)O)COP(=O)(O)O` registered an EC50 of 0.84 µM.

A word on the IC50: it is the concentration needed to halve the response being measured. As usually defined, the EC50 is the concentration giving half of the maximal effect. For orientation: inhibition means the relative decrease from the control value, in per cent.

Source of the values: ChEMBL document CHEMBL1135773, “Purine and pyrimidine (P2) receptors as drug targets” (J Med Chem, 2002).
